pIC50: −log10 of the molar value. Calls of active or inactive are those of the source. How the calls were made is not given here. A value given as a limit tells only on which side of the number the result lay.

One may read the pIC50 as −log10 of the IC50, conventionally taken in molar units. Broadly, the IC50 is the point on the concentration scale where inhibition reaches its midpoint. As a reminder, the inhibition is the change of the read-out against control, counted positive when it falls.

Experiment in all cases: CXCR6 receptor antagonists, dose response, cell-based, beta-arrestin, DiscoveRx, APJ panel, uHTS hits (AID 624129)
Experiment [1] deals with C-X-C chemokine receptor type 6 (Homo sapiens) (UniProt O00574). To be noted: CXCR6 beta-arrestin (DiscoveRx) antagonist cell assay; for inhibition: CXCR6, run 1, dose range 2, at 80 µM (top of the series).
Experiment [2] concerns the target Beta-galactosidase (Escherichia coli) (UniProt Q8VNN2). To be noted: CXCR6 beta-arrestin (DiscoveRx) antagonist cell assay, b-galactosidase; for IC50: dose range 1; for pIC50: dose range 1, mean IC50 across replicates.
Experiment [3] concerns the target Apelin receptor (Homo sapiens) (UniProt P35414). Particulars: CXCR6 beta-arrestin (DiscoveRx) antagonist cell assay, APJ.
Experiment [4] deals with C-C chemokine receptor type 6 (Homo sapiens) (UniProt P51684). To be noted: CXCR6 beta-arrestin (DiscoveRx) antagonist cell assay.
[5] abbreviates: CXCR6, dose range 1, mean IC50 across replicates.
The mark [6] stands for this setting: dose range 1, mean IC50 across replicates.
[7] abbreviates: CCR6, dose range 1, mean IC50 across replicates.

Sequence of C-X-C chemokine receptor type 6 (Homo sapiens) (O00574 whole entry, looked up): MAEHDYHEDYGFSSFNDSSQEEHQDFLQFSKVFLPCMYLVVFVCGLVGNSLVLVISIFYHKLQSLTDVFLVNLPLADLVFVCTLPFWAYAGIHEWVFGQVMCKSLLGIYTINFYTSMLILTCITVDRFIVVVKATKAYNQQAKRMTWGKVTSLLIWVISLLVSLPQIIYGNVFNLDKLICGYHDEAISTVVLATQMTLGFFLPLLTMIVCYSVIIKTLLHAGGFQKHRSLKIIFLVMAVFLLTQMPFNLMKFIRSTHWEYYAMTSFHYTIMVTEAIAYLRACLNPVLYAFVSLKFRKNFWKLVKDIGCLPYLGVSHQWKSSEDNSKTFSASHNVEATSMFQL
Sequence of Beta-galactosidase (Escherichia coli) (Q8VNN2 whole entry, looked up): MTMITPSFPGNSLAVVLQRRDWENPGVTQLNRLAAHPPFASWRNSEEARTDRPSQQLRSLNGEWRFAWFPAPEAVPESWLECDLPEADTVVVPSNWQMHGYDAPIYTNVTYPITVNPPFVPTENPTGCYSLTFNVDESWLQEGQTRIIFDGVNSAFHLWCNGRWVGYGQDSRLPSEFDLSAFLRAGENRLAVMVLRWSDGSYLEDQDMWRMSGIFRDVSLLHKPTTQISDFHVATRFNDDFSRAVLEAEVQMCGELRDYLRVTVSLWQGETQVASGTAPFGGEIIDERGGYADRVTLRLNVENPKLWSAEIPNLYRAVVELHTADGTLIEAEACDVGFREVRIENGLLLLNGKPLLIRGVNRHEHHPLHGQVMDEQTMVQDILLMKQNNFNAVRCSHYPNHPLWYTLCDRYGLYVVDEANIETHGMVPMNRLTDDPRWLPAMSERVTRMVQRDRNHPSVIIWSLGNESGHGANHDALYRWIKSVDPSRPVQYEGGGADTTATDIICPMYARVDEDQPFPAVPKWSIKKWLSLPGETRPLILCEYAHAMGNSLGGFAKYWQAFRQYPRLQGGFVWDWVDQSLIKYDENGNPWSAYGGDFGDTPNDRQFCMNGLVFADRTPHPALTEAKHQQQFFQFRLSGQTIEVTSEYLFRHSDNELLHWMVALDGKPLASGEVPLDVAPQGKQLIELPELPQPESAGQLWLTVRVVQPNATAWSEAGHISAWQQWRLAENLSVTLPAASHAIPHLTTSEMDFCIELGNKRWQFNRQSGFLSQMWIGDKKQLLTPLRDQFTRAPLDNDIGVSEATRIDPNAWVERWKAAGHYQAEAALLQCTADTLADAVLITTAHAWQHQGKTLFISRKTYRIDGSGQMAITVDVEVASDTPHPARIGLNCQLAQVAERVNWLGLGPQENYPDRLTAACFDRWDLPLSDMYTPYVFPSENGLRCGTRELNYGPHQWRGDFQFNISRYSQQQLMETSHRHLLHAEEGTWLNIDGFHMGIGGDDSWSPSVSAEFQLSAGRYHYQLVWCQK

On to `Cc1cccc(C(=O)Nc2ccc(C(=O)/C=C/c3cccnc3)cc2)c1`, for which the pIC50 in experiment [1] (CXCR6, dose range 1) was 4.86; in experiment [1] (setting [5]), 5.06; in experiment [1] (CXCR6, run 1, dose range 2), 5.16; in experiment [1] (CXCR6, run 2, dose range 1) it was 5.15; in experiment [1] (CXCR6, run 2, dose range 2) it was 5.13; in experiment [2], < 4.10. Besides, the pIC50 is 5.06 in experiment [3] (dose range 1); 5.02 in experiment [3] (setting [6]); 5.01 in experiment [3] (run 2, dose range 1); 4.98 in experiment [3] (run 3, dose range 1); 5.27 in experiment [4] (CCR6, dose range 1); 5.24 in experiment [4] (setting [7]). The pIC50 in experiment [4] (CCR6, run 2, dose range 1) was 5.21. Besides, in experiment [2], the IC50 is > 80 µM (inactive).

For `Cc1ccc(/C=N/NC(=S)N2CCOCC2)cc1`, the pIC50 in experiment [1] (CXCR6, dose range 1) is 5.30; in experiment [1] (setting [5]) it was 5.42; in experiment [1] (CXCR6, run 1, dose range 2), 5.50; in experiment [1] (CXCR6, run 2, dose range 1), 5.34; in experiment [1] (CXCR6, run 2, dose range 2), 5.57; in experiment [2], < 4.10. For the same molecule, the pIC50 was 5.31 in experiment [3] (dose range 1); 5.29 in experiment [3] (setting [6]); 5.25 in experiment [3] (run 2, dose range 1); 5.31 in experiment [3] (run 3, dose range 1); 5.45 in experiment [4] (CCR6, dose range 1); 5.37 in experiment [4] (setting [7]). Also, in experiment [4] (CCR6, run 2, dose range 1), the pIC50 was 5.31. For the same molecule, the IC50 in experiment [2] is > 80 µM (inactive).

As to `O=C(NNC(=O)C12CC3CC(CC(C3)C1)C2)c1ccccn1`, the pIC50 in experiment [1] (CXCR6, dose range 1) was 4.73; in experiment [1] (setting [5]), 4.96; in experiment [1] (CXCR6, run 1, dose range 2), 5.25; in experiment [1] (CXCR6, run 2, dose range 1), 5.07; in experiment [1] (CXCR6, run 2, dose range 2), 4.96; in experiment [2] it was < 4.10. For the same molecule, the pIC50 was 4.99 in experiment [3] (dose range 1); 5.04 in experiment [3] (setting [6]); 5.07 in experiment [3] (run 2, dose range 1); 5.06 in experiment [3] (run 3, dose range 1); 5.05 in experiment [4] (CCR6, dose range 1); 5.07 in experiment [4] (setting [7]). In experiment [4] (CCR6, run 2, dose range 1), this molecule had a pIC50 of 5.08. Further, the IC50 in experiment [2] is > 80 µM (inactive).

With `Cc1c(Cl)sn(-c2ccc(Cl)cc2)c1=O`, the pIC50 is 5.05 in experiment [1] (CXCR6, dose range 1); 5.03 in experiment [1] (setting [5]); 4.95 in experiment [1] (CXCR6, run 1, dose range 2); 5.10 in experiment [1] (CXCR6, run 2, dose range 1); 5.03 in experiment [1] (CXCR6, run 2, dose range 2); < 4.10 in experiment [2]. For the same molecule, the pIC50 in experiment [3] (dose range 1) was 4.79; in experiment [3] (setting [6]) it was 4.64; in experiment [3] (run 2, dose range 1) it was 4.84; in experiment [3] (run 3, dose range 1), 4.43; in experiment [4] (CCR6, dose range 1), 5.49; in experiment [4] (setting [7]), 5.43. Besides, in experiment [4] (CCR6, run 2, dose range 1), the pIC50 was 5.38. Also, the IC50 in experiment [2] is > 80 µM (inactive).

On to `CCOc1ccc(NC(=O)CN(C)S(=O)(=O)c2cccs2)cc1`, for which the IC50 in experiment [1] (CXCR6, dose range 1) is > 80 µM (inactive); in experiment [2] it was > 80 µM (inactive). For the same molecule, the pIC50 in experiment [1] (setting [5]) is < 4.10; in experiment [1] (CXCR6, run 2, dose range 1), < 4.10; in experiment [2] it was < 4.10; in experiment [3] (setting [6]) it was < 4.10; in experiment [3] (run 2, dose range 1) it was < 4.10; in experiment [3] (run 3, dose range 1), < 4.10. Moreover, the pIC50 in experiment [4] (setting [7]) was < 4.10; in experiment [4] (CCR6, run 2, dose range 1), < 4.10. Moreover, the inhibition in experiment [1] is -28%.

Consider `COc1ccc(-n2c(O)c(/C=N/Nc3nc(C)cc(C)n3)c3ccccc3c2=O)cc1OC`, for which the IC50 is > 80 µM (inactive) in experiment [1] (CXCR6, dose range 1) and > 80 µM (inactive) in experiment [2]. Besides, the negative-log IC50 (pIC50) is < 4.10 in experiment [1] (setting [5]); < 4.10 in experiment [1] (CXCR6, run 2, dose range 1); < 4.10 in experiment [2]; 4.30 in experiment [3] (setting [6]); < 4.10 in experiment [3] (run 2, dose range 1); 4.30 in experiment [3] (run 3, dose range 1). Also, the pIC50 is 4.50 in experiment [4] (CCR6, dose range 1); 4.53 in experiment [4] (setting [7]); 4.57 in experiment [4] (CCR6, run 2, dose range 1). Further, the inhibition in experiment [1] was found to be 118%.

As for `C=C1CC(COc2ccc3c(C)c(Cl)c(=O)oc3c2)(c2ccccc2)OC1=O` (stereo not given), the negative-log IC50 (pIC50) in experiment [1] (CXCR6, dose range 1) was 5.41; in experiment [1] (setting [5]), 5.41; in experiment [1] (CXCR6, run 2, dose range 1), < 4.10; in experiment [2], < 4.10; in experiment [3] (setting [6]), 4.45; in experiment [3] (run 2, dose range 1), 4.27. In addition, the pIC50 was 4.79 in experiment [3] (run 3, dose range 1); 6.76 in experiment [4] (CCR6, dose range 1); 5.85 in experiment [4] (setting [7]); 5.57 in experiment [4] (CCR6, run 2, dose range 1). The inhibition in experiment [1] stood at 55.2%. Besides, the IC50 in experiment [2] and in experiment [3] (dose range 1) was > 80 µM (inactive) each time.

As for `O=C(OCn1ncc(Cl)c(Cl)c1=O)c1cccc(C(F)(F)F)c1`, in experiment [1] (CXCR6, dose range 1), the IC50 entry was “inactive”. Also, the negative-log IC50 (pIC50) in experiment [1] (setting [5]) is 4.63; in experiment [1] (CXCR6, run 2, dose range 1), 4.72; in experiment [2], < 4.10; in experiment [3] (dose range 1), 4.67; in experiment [3] (setting [6]) it was 4.50; in experiment [3] (run 2, dose range 1), 4.49. In addition, the negative logarithm of the IC50 (pIC50) was 4.39 in experiment [3] (run 3, dose range 1); 4.85 in experiment [4] (CCR6, dose range 1); 4.79 in experiment [4] (setting [7]); 4.74 in experiment [4] (CCR6, run 2, dose range 1). For the same molecule, in experiment [1], the inhibition was 128%. The IC50 in experiment [2] is > 80 µM (inactive).
